# Like-named read-outs stand apart in the source and are kept apart here.
# Legend:
# [1] = system: HTT mRNA; test: RT-qPCR splicing assay, HTT mRNA canonical (CJ) and alternative (AJ) junction; format: cell-based, human; details: for AC50: HTT alternative junction mRNA, read-out: HTT AJ (increase in AJ mRNA, AC50)
# In short: (§1)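 Junction-specific RT-qPCR read-out: CJ and AJ isoform levels, housekeeper-normalized (GAPDH/GUSB/PPIA), ΔΔCt vs DMSO, converted to RQ then % response. Cells: A673 (DMEM/10% FBS, adhered 24 h) or K562 (IMDM/10% FBS). Compound 11-pt 3-fold, top 10 uM, 24 h, 37 °C.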
# [2] = system: MYB mRNA; test: RT-qPCR splicing assay, MYB mRNA canonical (CJ) and alternative (AJ) junction; format: cell-based, human; details: for AC50: MYB alternative junction mRNA, read-out: MYB AJ (increase in AJ mRNA, AC50)
# In short: as §1
# [3] = system: SMN2 mRNA; test: RT-qPCR splicing assay, SMN2 mRNA; format: cell-based, human; details: canonical junction qPCR panel, Table 4, read-out: SMN2 IC50 (decrease in CJ mRNA levels)
# In short: as §1
# [4] = system: MYB; test: HiBiT protein abundance assay, MYB (K562 HiBiT knock-in); format: cell-based, human; details: HiBiT knock-in K562 cells, 24 hours, top dose 10 μM
# In short: (§2)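 Luminescence readout: Nano-Glo HiBiT lytic detection after 24 h compound exposure of K562 HiBiT knock-in cells, 10000 cells/well. Dosing 10-pt, 3-fold, top 10 μM final. % response vs untreated parental K562 and DMSO controls; 4PL fit, IC50 = concentration giving 50% protein abundance.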
# [5] = system: HTT; test: HiBiT protein abundance assay, HTT (K562 HiBiT knock-in); format: cell-based, human; details: HiBiT knock-in K562 cells, 24 hours, top dose 10 μM
# In short: as §2
# [6] = system: Target C; test: HiBiT protein abundance assay, Target C (K562 HiBiT knock-in); format: cell-based, human; details: HiBiT knock-in K562 cells, 24 hours, top dose 10 μM
# In short: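 K562 HiBiT knock-in cells (10000/well) were treated 24 h at 37° C with a 10-point 3-fold dilution series (top 10 μM final, ≤0.25% DMSO). HiBiT luminescence was read after lytic LgBiT detection. Percent response used unmodified K562 and DMSO-treated knock-in controls, and IC50 came from a four-parameter fit at 50% of untreated.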
# [7] = system: K562 cells; test: Cell Titer Glo 2.0 cell viability (toxicity) assay, K562; details: 500 cells/well, 72 hours
# [8] = Homo sapiens, HTT canonical junction mRNA, RT-qPCR, read-out: HTT CJ (decrease in CJ mRNA levels, IC50)
# [9] = Homo sapiens, canonical junction qPCR panel, Table 4, read-out: HTT IC50 (decrease in CJ mRNA levels)
# [10] = Homo sapiens, MYB canonical junction mRNA, RT-qPCR, read-out: MYB CJ (decrease in CJ mRNA levels, IC50)
# [11] = Homo sapiens, canonical junction qPCR panel, Table 4, read-out: MYB IC50 (decrease in CJ mRNA levels)
Structure (SMILES),"AC50 ([1]; Homo sapiens, RT-qPCR) [nM]","IC50 [1, 8] [nM]","IC50 [1, 9] [nM]","AC50 ([2]; Homo sapiens, RT-qPCR) [nM]","IC50 [2, 10] [nM]","IC50 [2, 11] [nM]",IC50 ([3]; Homo sapiens) [nM],IC50 [4] [nM],IC50 [5] [nM],IC50 [6] [nM],"Effect of Exemplary Compounds on Cell Viability, K562 [7]",AC50 ([1]; RT-qPCR) [nM],"IC50 ([1]; HTT canonical junction mRNA, RT-qPCR, read-out: HTT CJ (decrease in CJ mRNA levels, IC50)) [nM]","IC50 ([1]; canonical junction qPCR panel, Table 4, read-out: HTT IC50 (decrease in CJ mRNA levels)) [nM]",AC50 ([2]; RT-qPCR) [nM],"IC50 ([2]; MYB canonical junction mRNA, RT-qPCR, read-out: MYB CJ (decrease in CJ mRNA levels, IC50)) [nM]","IC50 ([2]; canonical junction qPCR panel, Table 4, read-out: MYB IC50 (decrease in CJ mRNA levels)) [nM]",IC50 [3] [nM]
CCN[C@@H]1CCN(c2ccc3nc(-c4cc5cn(C)nc5cc4O)ccc3n2)C1 [Compound 180],100 to 1000,< 100,< 100,< 100,< 100,< 100,< 100,< 100,< 100,100 to 1000,A (A represents <100 nM),–,–,–,–,–,–,–
Cn1cc2cc(-c3ccc4nc(N5CC[C@H](NCC(F)(F)F)C5)ccc4n3)c(O)cc2n1 [Compound 182],> 10000,1000 to 10000,1000 to 10000,> 10000,1000 to 10000,1000 to 10000,1000 to 10000,> 10000,> 10000,> 10000,D (D represents greater than 10 μM in K562 cells),–,–,–,–,–,–,–
Cn1cc2cc(-c3ccc4nc(C5CCNCC5)ccc4n3)ccc2n1 [Compound 184],100 to 1000,100 to 1000,100 to 1000,100 to 1000,100 to 1000,100 to 1000,< 100,100 to 1000,100 to 1000,100 to 1000,B (B represents 100-1000 nM),–,–,–,–,–,–,–
Cn1cc2cc(-c3ccc4nc(C5CCNCC5)ccc4n3)cc(F)c2n1 [Compound 185],1000 to 10000,1000 to 10000,1000 to 10000,1000 to 10000,1000 to 10000,1000 to 10000,100 to 1000,1000 to 10000,1000 to 10000,> 10000,C (C represents 1000-9999 nM),–,–,–,–,–,–,–
Cc1cn2nc(-c3ccc4nc(N5CCC(NC(C)(C)C)C5)ccc4n3)cc2c(C)n1 (centres unmarked) [Compound 187],< 100,< 100,< 100,< 100,100 to 1000,100 to 1000,< 100,100 to 1000,< 100,< 100,B (B represents 100-1000 nM),–,–,–,–,–,–,–
Cn1cc2cc(-c3ccc4nc(N5CC[C@@H](NC6COC6)C5)ccc4n3)c(O)cc2n1 [Compound 188],100 to 1000,100 to 1000,100 to 1000,100 to 1000,100 to 1000,100 to 1000,< 100,1000 to 10000,100 to 1000,1000 to 10000,C (C represents 1000-9999 nM),–,–,–,–,–,–,–
Cn1cc2cc(-c3ccc4nc(N5CC[C@H](NC6COC6)C5)ccc4n3)c(O)cc2n1 [Compound 189],100 to 1000,1000 to 10000,1000 to 10000,100 to 1000,100 to 1000,100 to 1000,< 100,1000 to 10000,1000 to 10000,1000 to 10000,D (D represents greater than 10 μM in K562 cells),–,–,–,–,–,–,–
Cc1nc2cc(O)c(-c3ccc4nc(N5CCC(NC(C)(C)C)C5)ccc4n3)cc2s1 (centres unmarked) [Compound 190],> 10000,> 10000,> 10000,> 10000,> 10000,> 10000,< 100,> 10000,> 10000,> 10000,C (C represents 1000-9999 nM),–,–,–,–,–,–,–
Cc1c(O)c(-c2ccc3nc(N4CCC(NC(C)(C)C)C4)ccc3n2)cc2cn(C)nc12 (centres unmarked) [Compound 191],–,–,–,–,–,–,–,< 100,< 100,< 100,A (A represents <100 nM),> 10000,> 10000,> 10000,> 10000,> 10000,> 10000,> 10000
Cn1cc2cc(-c3ccc4nc(C5CCNCC5)ccc4n3)c(F)cc2n1 [Compound 193],1000 to 10000,1000 to 10000,1000 to 10000,1000 to 10000,1000 to 10000,1000 to 10000,1000 to 10000,1000 to 10000,1000 to 10000,1000 to 10000,C (C represents 1000-9999 nM),–,–,–,–,–,–,–
Cn1cc2cc(-c3ccc4nc(N5CC[C@@H](NCC6CC6)C5)ccc4n3)c(O)cc2n1 [Compound 195],100 to 1000,100 to 1000,100 to 1000,< 100,100 to 1000,100 to 1000,< 100,< 100,100 to 1000,100 to 1000,B (B represents 100-1000 nM),–,–,–,–,–,–,–
Cn1cc2cc(-c3ccc4nc(C5CCNCC5)ccc4n3)c(C(F)F)cc2n1 [Compound 196],> 10000,> 10000,> 10000,> 10000,> 10000,> 10000,1000 to 10000,> 10000,> 10000,> 10000,D (D represents greater than 10 μM in K562 cells),–,–,–,–,–,–,–
Cn1cc2cc(-c3ccc4nc(N5CC[C@H](NC6CC6)C5)ccc4n3)c(O)cc2n1 [Compound 197],< 100,< 100,< 100,100 to 1000,100 to 1000,100 to 1000,< 100,100 to 1000,< 100,100 to 1000,B (B represents 100-1000 nM),–,–,–,–,–,–,–
